According to PubChem BioAssay AID651630 (Sanford-Burnham Center for Chemical Genomics, 2012):
The source made the active and inactive calls.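 The calls were made as follows: active = lipid-stain IC50 at or below a set limit, with nuclear-stain toxicity IC50 at least five times higher; inactive = the rest.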

Experiments:
DAPI = assay: triacylglycerol accumulation inhibitor potency, dose response, cell-based, panel, Nile Red and DAPI fluorescence, H9c2 (AID 651630); details: H9c2 cells, DAPI nuclear fluorescence (cytotoxicity counter-readout), oleic acid;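 also: cells exposed to compound overnight before fixation and staining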
TAG = assay: as above; details: H9c2 cells, Nile Red TAG fluorescence, oleic acid

| SMILES | IC50 cytotoxicity (DAPI nuclear signal decrease) (DAPI; mean of runs) | IC50 cytotoxicity (DAPI nuclear signal decrease) (DAPI; run 1) [µM] | IC50 cytotoxicity (DAPI nuclear signal decrease) (DAPI; run 2) [µM] | IC50 (TAG; mean of runs) | IC50 (TAG; run 1) [µM] | IC50 (TAG; run 2) [µM] |
| --- | --- | --- | --- | --- | --- | --- |
| CN(Cc1ccc(Cl)cc1)C(=O)CCl | > 25 µM (inactive) | > 25 | > 25 | > 25 µM (inactive) | > 25 | > 25 |
| CCOc1ccc(S(=O)(=O)NCc2ccccn2)cc1NC(=O)c1ccccc1 | > 25 µM (inactive) | > 25 | > 25 | > 25 µM (inactive) | > 25 | > 25 |
| CCCCCc1cc(=O)oc2c(C(CCN(CC)CC)c3cc(OC)c(OC)c(OC)c3)c(OC)cc(OC)c12 (centres undefined) | > 25 µM (inactive) | > 25 | > 25 | > 25 µM (inactive) | > 25 | > 25 |
| COc1cccc2sc(Nc3nc(-c4cc5ccccc5oc4=O)cs3)nc12 | > 25 µM (inactive) | > 25 | > 25 | 8.35 µM | 7.33 | 9.37 |
| COc1cc(-c2nc3c(c(C)nn3-c3ccccc3)c3cc(OC)c(OC)cc23)ccc1O | > 25 µM (inactive) | > 25 | > 25 | > 25 µM (inactive) | > 25 | > 25 |
| O=C(c1cc(-c2ccncc2)nc2c(Cl)cccc12)N1CCN(c2ccccc2F)CC1 | > 25 µM (inactive) | > 25 | > 25 | 5.67 µM | 6.89 | 4.44 |
| COc1cc(CNC(=O)Nc2nc(C(N)Cc3ccc(Cl)cc3)cs2)cc(OC)c1OC (centres undefined) | – | > 25 | > 25 | 3.91 µM | 3.31 | 4.5 |
| Cc1nn(-c2ccc([N+](=O)[O-])cc2)c2c1C(c1ccc(OC(F)F)cc1)N1C(=N2)C(=O)Nc2ccccc21 (centres undefined) | > 25 µM (inactive) | > 25 | > 25 | 8.6 µM | 6.39 | 10.8 |
| C=CC[C@@H](CC(=O)N(CCO)Cc1ccccc1)C(=O)N[C@H](COC(=O)[C@@H](CC=C)CC(=O)OC(C)(C)C)Cc1ccccc1 | > 25 µM (inactive) | > 25 | > 25 | 5.86 µM | 5.71 | 6.02 |
| COc1cc(-c2cc(NC=O)c3ncc(-c4cccc(C(=O)N(C)C)c4)n3c2)cc(OC)c1OC | > 25 µM (inactive) | > 25 | > 25 | 8.89 µM | 5.06 | 12.7 |
| O=C(NC1CCCCC1)C(c1ccccc1)N(Cc1ccc2c(c1)OCO2)C(=O)c1cnsn1 (centres undefined) | > 25 µM (inactive) | > 25 | > 25 | 18.7 µM (inactive) | 17.2 | 20.2 |
| C[C@H](O)[C@@H]1CN2CCc3c([nH]c4ccc(-c5ccc6c(c5)OCO6)cc34)[C@@H]2C[C@@H]1N(C)C(=O)Nc1cc(Cl)cc(Cl)c1 | > 25 µM (inactive) | > 25 | > 25 | 18.2 µM (inactive) | 11.9 | 24.5 |
| CCC1(O)CC2CN(CCc3c([nH]c4ccccc34)C(C(=O)OC)(c3cc4c(cc3OC)N(C=O)C3C(O)(C(=O)OC)C(OC(C)=O)C5(CC)C=CCN6CCC43C65)C2)C1 (centres undefined) | > 25 µM (inactive) | > 25 | > 25 | – | < 0.78 | > 25 |
| O=C(CSc1nc2ccc(Nc3nc(N4CCOCC4)nc(N4CCOCC4)n3)cc2s1)Nc1ccccc1Cl | > 25 µM (inactive) | > 25 | > 25 | 8.88 µM | 7.69 | 10.1 |
| Cc1ccc(Nc2nc(OC(C(F)(F)F)C(F)(F)F)nc(N3CCOCC3)n2)cc1 | – | 22.3 | > 25 | 7.62 µM | 7.92 | 7.32 |
| C#CCN(C[C@H]1[C@H](OC(=O)NCC2CCCCC2)[C@H](OC(=O)NCC2CCCCC2)C[C@@H](C(=O)OC)[C@H]1C(=O)OC)S(=O)(=O)c1ccc(C)cc1 | – | > 25 | > 25 | 4.93 µM | 4.53 | 5.33 |
| COc1ccc2[nH]c3c(c2c1)CCN1C(=O)C(CC(=O)NC/C=C(\C)CCC=C(C)C)C[C@H](C(=O)N(C(C)C)C(C)C)[C@@]31C (some centres undefined) | – | 19.8 | > 25 | 19.3 µM (inactive) | 19.5 | 19.1 |

| SMILES | IC50 cytotoxicity (DAPI nuclear signal decrease) (DAPI; mean of runs) | IC50 cytotoxicity (DAPI nuclear signal decrease) (DAPI; run 1) [µM] | IC50 cytotoxicity (DAPI nuclear signal decrease) (DAPI; run 2) [µM] | IC50 (TAG; mean of runs) | IC50 (TAG; run 1) [µM] | IC50 (TAG; run 2) [µM] |
| --- | --- | --- | --- | --- | --- | --- |
| COc1ccc2sc(-c3ccc(N(C)C)cc3)c(C#CCO)c2c1 | > 25 µM (inactive) | > 25 | > 25 | 6.43 µM | 6.72 | 6.13 |
| O=C1NC(Cc2ccc(O)cc2)c2nc3ccc(Cl)cc3c(=O)n2-c2cc3ccccc3cc21 (centres undefined) | > 25 µM (inactive) | > 25 | > 25 | > 25 µM (inactive) | > 25 | > 25 |
| Cc1cccc2c(N=Nc3ccc(S(=O)(=O)Nc4ccc(Cl)cc4)cc3[N+](=O)[O-])c(O)[nH]c12 | > 25 µM (inactive) | > 25 | > 25 | 12.2 µM | 16.5 | 7.89 |
| FC(F)Oc1ccc(-c2csc(NNC3=NCCCCC3)n2)cc1 | – | > 25 | > 25 | 2.55 µM | 2.29 | 2.81 |
| Cc1ccc(CC2(OCCN(C)C)CCC(C(C)(C)C)CC2)cc1 (centres undefined) | 23.5 µM (inactive) | 23.2 | 23.8 | > 25 µM (inactive) | > 25 | > 25 |
| COC(=O)C1=C(C)N(Cc2ccccc2)C(=NCC(C)C)N[C@H]1c1cccc(F)c1 | > 25 µM (inactive) | > 25 | > 25 | > 25 µM (inactive) | > 25 | > 25 |
| O=C(NCCCCCCCN1CCCCCCC1)C(C1CCCCC1)C1CCCCC1 | > 25 µM (inactive) | > 25 | > 25 | 17.8 µM (inactive) | 15.9 | 19.7 |
| C=CCNc1nc(Nc2ccc(OC)c(OC)c2)c2sc(-c3ccccc3)cc2n1 | > 25 µM (inactive) | > 25 | > 25 | 5.16 µM | 7.19 | 3.13 |
| Clc1cccc(Nc2nc(-c3ccncc3)nc3ccccc23)c1 | > 25 µM (inactive) | > 25 | > 25 | – | 18.9 | > 25 |
| CCCCCCC(C)(C)c1ccc([C@@H]2C[C@H](O)CC[C@H]2CCCO)c(O)c1 | 22 µM (inactive) | 23.7 | 20.2 | 9.3 µM | 7.71 | 10.9 |
| COc1ccc(-c2sc3ccc(N4CCOCC4)cc3c2C#CC(C)(C)O)cc1 | > 25 µM (inactive) | > 25 | > 25 | > 25 µM (inactive) | > 25 | > 25 |
| CCN(CC)CCNC(=O)C(Cl)=C1C(Cl)=C(Cl)C(Cl)=C1Cl | 21.4 µM (inactive) | 20.2 | 22.7 | > 25 µM (inactive) | > 25 | > 25 |
| CSC1=NC(C(Cl)(Cl)Cl)N=C(c2ccc(C)cc2)N1 (centres undefined) | > 25 µM (inactive) | > 25 | > 25 | > 25 µM (inactive) | > 25 | > 25 |
| CCC(C)(C)NC(=O)C(c1cccn1C)N(Cc1ccc(OC)cc1)C(=O)Cn1nnc2ccccc21 (centres undefined) | > 25 µM (inactive) | > 25 | > 25 | > 25 µM (inactive) | > 25 | > 25 |
| COc1ccc(C2NCCc3c2[nH]c2ccccc32)cc1CSc1nc2ccccc2s1 (centres undefined) | – | > 25 | 24.6 | > 25 µM (inactive) | > 25 | > 25 |
| CCCCCc1ccc(-c2cn(Cc3ccc(C(=O)c4ccccc4)cc3)nn2)cc1 | > 25 µM (inactive) | > 25 | > 25 | – | 17.9 | > 25 |
